Peptide text beside a SMILES is read from it. * marks the point of attachment. Cbz = O=C(OCc1ccccc1)*
Tests used:
急性早幼粒白血病细胞NB4 [1] = test: MTT cell survival assay, NB4 cells; assay type: cell-based; conditions: 48 h; for Enhancement of the cancer cell inhibition of arsenic trioxide by a proteasome inhibitor: proteasome inhibitor fixed 40 nM combined with arsenic trioxide 0.1-0.5 μM, Fig. 6; for 细胞存活率 (cell survival rate): arsenic trioxide 0.1-0.5 μM, oprozomib 5-40 nM, alone or combined (fixed 40 nM oprozomib or fixed 0.4 μM arsenic trioxide), Fig. 1, 2
急性早幼粒白血病细胞HL-60 = test: MTT cell survival assay, HL-60 cells; assay type: cell-based; conditions: HL-60, MTT, 48 h; arsenic trioxide 0.4-2 μM, oprozomib 40-200 nM, alone or combined (fixed 160 nM oprozomib or fixed 1.2 μM arsenic trioxide); Fig. 3, 4
人结直肠腺癌细胞CaCo-2 = test: MTT cell survival assay, CaCo-2 cells; assay type: cell-based, 人; conditions: CaCo-2, MTT, 48 h; arsenic trioxide 0.4 μM, oprozomib 40 nM, alone or combined; Fig. 5
急性早幼粒白血病细胞NB4 [2] = test: Mouse APL model: CD33 immunohistochemistry of liver and spleen sections; assay type: in vivo, NOD/SCID小鼠; conditions: oprozomib 0.43 mg/kg iv, arsenic trioxide 1.53 mg/kg iv; compared with control group; Fig. 14
慢性髓性白血病细胞K562 = test: MTT cell survival assay, K562 cells; assay type: cell-based; conditions: 48 h, arsenic trioxide 0.4 μM, oprozomib 40 nM, alone or combined, Fig. 5
急性早幼粒白血病细胞NB4 [3] = test: Mouse APL model: HE staining of liver and spleen sections; assay type: in vivo, NOD/SCID小鼠; conditions: oprozomib 0.43 mg/kg iv, arsenic trioxide 1.53 mg/kg iv; compared with control group; Fig. 13
急性早幼粒白血病细胞NB4 [4] = test: Mouse APL model: flow cytometry of bone marrow cells for human CD33+; assay type: in vivo, NOD/SCID小鼠; conditions: moribund mice, bone marrow cultured 24 h; oprozomib 0.43 mg/kg iv, arsenic trioxide 1.53 mg/kg iv; compared with positive control; Fig. 8-12
人肝癌细胞SMMC-7721 = test: MTT cell survival assay, SMMC-7721 cells; assay type: cell-based, 人; conditions: SMMC-7721, MTT, 48 h; arsenic trioxide 0.4 μM, oprozomib 40 nM, alone or combined; Fig. 5

Structure (SMILES) | Enhancement of the cancer cell inhibition of arsenic trioxide by a proteasome inhibitor (急性早幼粒白血病细胞NB4 [1]) | 细胞存活率 (cell survival rate) (急性早幼粒白血病细胞HL-60) | 细胞存活率 (cell survival rate) (人结直肠腺癌细胞CaCo-2) | 细胞存活率 (cell survival rate) (急性早幼粒白血病细胞NB4 [1]) | Human CD33 expression in liver and spleen sections (immunohistochemistry) (急性早幼粒白血病细胞NB4 [2]) | 细胞存活率 (cell survival rate) (慢性髓性白血病细胞K562) | Infiltrating tumour cells in liver and spleen (HE staining) (急性早幼粒白血病细胞NB4 [3]) | Human CD33+ positive cells in mouse bone marrow (急性早幼粒白血病细胞NB4 [4]) | 细胞存活率 (cell survival rate) (人肝癌细胞SMMC-7721)
CC(C)C[C@@H](C=O)NC(=O)[C@H](CC(C)C)NC(=O)[C@H](CC(C)C)NC(=O)OCc1ccccc1 [MG132] (Cbz-Leu-Leu-Leu-aldehyde) | 并不能增加三氧化二砷的癌细胞抑制效果 | – | – | – | – | – | – | – | –
O=[As][As+](=O)[O-] (stereo not drawn) [三氧化二砷] | – | 无明显影响 | 无明显影响 | 无明显影响 | 略有减少但不明显 | 无明显影响 | 略有减少但不明显 | 有所减少 | 无明显影响
COC[C@H](NC(=O)c1cnc(C)s1)C(=O)N[C@@H](COC)C(=O)N[C@@H](Cc1ccccc1)C(=O)[C@@]1(C)CO1 [奥普佐米] | 能极大地提升三氧化二砷的癌细胞抑制效果 | 无明显影响 | 无明显影响 | 无明显影响 | 略有减少但不明显 | 无明显影响 | 略有减少但不明显 | 有所减少 | 无明显影响
